Each structure is given as a SMILES string.

The subject of one assay is GPR55. The settings on record: ref [55]; cited from earlier work. As for the experimental part:
GPR55 involvement in osteoclast functions was directly assessed using in-vitro assays of bone resorbing activity. As the transient silencing by GPR55-specific siRNAs in precursor cells was not applicable to this long-term differentiation assay, pharmacological perturbation of GPR55 was carried out with only the most specific antagonists (ML-191, CID16020046) and LPI. RAW264.7 cells were plated on cortical bone slices and RANKL-differentiated for 7 days in the absence or presence of the different GPR55 regulators. At the end of the differentiation, the cells were detached and the resorbing area ...

Assay [1] relates to osteoclasts derived from RAW264.7 cells. As to the kind of experiment: Osteoclast functional assay (bone resorption on bovine cortical bone slices). It counts as cell-based, murine. The note with it: 0.5 µM CID16020046, 15 ng/mL RANKL, 7 days. As for the experimental part:
RAW264.7 cells were plated in differentiation medium at a density of 1250 cells/100 µL on 0.2-mm-thick bovine cortical bone slices (BoneSlices.com, Jelling, Denmark) in 96-well plates. Six hours later, 100 µL differentiation medium with RANKL (15 ng/mL, final concentration) was added, in the presence of a carrier or in combination with the GPR55 modulators. The media with the different compounds were replaced every 48 h, for a total of 7 days. At the end of this period, the cells were detached with a 10% bleach solution, and the resorption excavations were visualised by using Toluidine Blue staining (Sigma-Aldrich). Images of the resorption areas were obtained under the microscope (SW380T; Swift Optical Instruments, Inc., TX, USA) using the 10 × objective, and acquired with a digital camera (Swiftcam SC1003; Swift Optical Instruments, Inc.). The total eroded surface underwent blinded quantification using ImageJ (NIH), and was subdivided into pit and trench surfaces. Pits were characterised as round excavations with well-defined edges where the ratio between length and width was < 2.0. Trenches were defined as elongated excavations with well-defined edges whose length was at least twice the wide, and with clear signs of continued resorption. The prevalence of trenches was calculated as a proportion (%) of the trench surface relative to the total eroded surface.

For the next assay, the system named is RAW264.7 cells. As to the kind of experiment: RANKL-induced transcription of osteoclastogenesis markers in RAW264.7 cells (real-time PCR). Format: cell-based, murine. The settings on record: RANKL 15 ng/mL, 72 h, 1 µM soybean LPI. As for the experimental part:
Total RNA was extracted using RNeasy isolation kits, cDNAs were obtained using QuantiTect Reverse Transcription kits, and real-time PCRs were performed with QuantiTect SYBR Green PCR kits (all from Qiagen, Hilden, Germany), according to the manufacturer instructions. The primers used for the real-time PCRs and their annealing temperatures are listed in the Additional file 1: Table S1. Human hypoxanthine phosphoribosyltransferase 1 (HPRT1) or murine β2-microglobulin were followed as housekeeping genes. The real-time PCR programme consisted of an initial 15 min at 95 °C, and then 45 cycles as follows: 94 °C for 15 s, annealing temperature of each primer for 30 s, and 72 °C for 30 s. The real-time PCR machine used was a LightCycler 480 Instrument II (Roche, Indianapolis, IN, USA).
For transient interference of Gpr55, RAW264.7 cells were plated at 6 × 10^5 cells/well in six-well plates in growth medium without antibiotics. Twenty-four hours later, the cells were transfected with 250 pmol/well non-targeting small-interfering (si)RNAs (si-NT; siGENOME siRNA Pool #2; D-001206-14; Dharmacon, Chicago, IL, USA) or Gpr55-specific siRNAs (si-GPR55; siGENOME mouse GPR55 SMART pool; M-043590-01; Dharmacon) using Lipofectamine LTX and Plus Reagent, according to the manufacturer instructions. Twenty-four hours later, the cells were plated for the different assays or for RNA extraction. The efficiency of interference was monitored by real-time PCR after 72 h of interference, using the primers listed in the Additional file 1: Table S1. β2-microglobulin was followed as a housekeeping gene.
For the osteoclastogenesis in-vitro assay, RAW264.7 cells were plated in differentiation medium (α-MEM with 10% heat-inactivated FBS, 2 mM L-glutamine, 100 U/mL penicillin, and 100 ug/mL streptomycin) at a density of 5 × 10^3 cells/well in 24-well plates on coverslips for morphological analysis, or at 2 × 10^4 cells/well in six-well plates for RNA extraction. Twenty-four hours later and every 48 h, the medium was replaced and the cells were treated with 15–30 ng/mL RANKL with DMSO and/or PBS as carriers, or with GPR55 antagonists/ agonists (0.5 µM ML-191, 30 µM O1918, 0.5 µM CBD, 0.5 μM CID16020046 1 µM soybean LPI, 1 μM ML-184), or with the peptides (150 nM peptide-P1; or the irrelevant peptide, Irr_P). Twenty-four hours after the last addition, the cells were fixed with 4% paraformaldehyde for morphological analyses or harvested for RNA extraction (see above).

Consider `Cc1ccc(-c2n[nH]c3c2C(c2cccc(O)c2)N(c2ccc(C(=O)O)cc2)C3=O)cc1` (centres unmarked) [CID16020046], for which the “mode of action on GPR55” value with GPR55 was “GPR55 inverse agonist”. Also, in assay [1], the “inhibition of RANKL-promoted osteoclast degrading activity” value is recorded as “only slightly inhibited”. In addition, the “reduction of relative trench contribution compared to RANKL” value in assay [1] (p < 0.05) was “about 30%”. In addition, in the assay on RAW264.7 cells (0.5 µM CID16020046), the “reduction of LPI-stimulated Ctr transcription” value is 50%. Also, the “block of LPI-stimulated Nfatc1 transcription” value in the assay with RAW264.7 cells (0.5 µM ML-191 or 0.5 µM CID16020046) was “completely blocked”.

The record behind these values is publication PMC8073907, “Peptide targeting of lysophosphatidylinositol-sensing GPR55 for osteoclastogenesis tuning” (Cell Communication and Signaling : CCS, 2021).
